Measured values from ChEMBL document CHEMBL4622882, “Discovery of a novel indole pharmacophore for the irreversible inhibition of myeloperoxidase (MPO)” (Bioorg Med Chem, 2020).
Converted amounts (≈) assume the structure as drawn. The source made the active and inactive calls. The calls are words filed in the database; no cut-off is given here.

What was measured:
Myeloperoxidase [1] = biological target: T1, Myeloperoxidase (Homo sapiens, UniProt P05164); assay: Inhibition of myeloperoxidase (unknown origin)
T1 sequence (P05164 whole entry): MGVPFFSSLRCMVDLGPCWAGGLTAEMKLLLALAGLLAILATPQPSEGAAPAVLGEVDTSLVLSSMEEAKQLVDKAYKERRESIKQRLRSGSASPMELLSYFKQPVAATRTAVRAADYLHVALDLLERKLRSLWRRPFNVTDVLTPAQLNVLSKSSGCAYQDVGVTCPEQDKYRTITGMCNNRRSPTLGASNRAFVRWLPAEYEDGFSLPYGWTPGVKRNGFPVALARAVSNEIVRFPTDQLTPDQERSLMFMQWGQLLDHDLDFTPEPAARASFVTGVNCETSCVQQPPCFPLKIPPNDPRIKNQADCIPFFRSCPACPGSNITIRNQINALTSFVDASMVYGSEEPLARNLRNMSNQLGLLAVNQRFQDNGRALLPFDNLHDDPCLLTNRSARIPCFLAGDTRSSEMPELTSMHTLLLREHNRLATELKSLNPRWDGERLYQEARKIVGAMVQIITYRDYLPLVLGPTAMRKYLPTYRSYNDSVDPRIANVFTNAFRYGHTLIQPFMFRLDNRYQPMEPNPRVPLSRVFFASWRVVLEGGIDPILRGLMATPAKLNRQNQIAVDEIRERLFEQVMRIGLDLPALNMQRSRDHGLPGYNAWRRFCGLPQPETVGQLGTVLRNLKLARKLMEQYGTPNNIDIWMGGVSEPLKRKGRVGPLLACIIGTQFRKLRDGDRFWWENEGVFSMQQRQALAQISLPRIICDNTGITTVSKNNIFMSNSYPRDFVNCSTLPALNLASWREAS

Myeloperoxidase [2] = biological target: T1, Myeloperoxidase; assay: Inhibition of human plasma myeloperoxidase
[3] = biological target: T2, Myeloperoxidase (Homo sapiens) (UniProt P05164); assay: Inhibition of myeloperoxidase (unknown origin) assessed as ratio of Kinact to Ki
T2 sequence (whole entry): T1 sequence (P05164 whole entry)

[4] = biological target: T2, Myeloperoxidase (Homo sapiens); assay: Inhibition of myeloperoxidase (unknown origin) assessed as partition ratio by Amplex red based fluorescence assay
Thyroid peroxidase = biological target: T3, Thyroid peroxidase (Homo sapiens, UniProt P07202); assay: Inhibition of thyroid peroxidase (unknown origin)
T3 sequence (P07202 whole entry): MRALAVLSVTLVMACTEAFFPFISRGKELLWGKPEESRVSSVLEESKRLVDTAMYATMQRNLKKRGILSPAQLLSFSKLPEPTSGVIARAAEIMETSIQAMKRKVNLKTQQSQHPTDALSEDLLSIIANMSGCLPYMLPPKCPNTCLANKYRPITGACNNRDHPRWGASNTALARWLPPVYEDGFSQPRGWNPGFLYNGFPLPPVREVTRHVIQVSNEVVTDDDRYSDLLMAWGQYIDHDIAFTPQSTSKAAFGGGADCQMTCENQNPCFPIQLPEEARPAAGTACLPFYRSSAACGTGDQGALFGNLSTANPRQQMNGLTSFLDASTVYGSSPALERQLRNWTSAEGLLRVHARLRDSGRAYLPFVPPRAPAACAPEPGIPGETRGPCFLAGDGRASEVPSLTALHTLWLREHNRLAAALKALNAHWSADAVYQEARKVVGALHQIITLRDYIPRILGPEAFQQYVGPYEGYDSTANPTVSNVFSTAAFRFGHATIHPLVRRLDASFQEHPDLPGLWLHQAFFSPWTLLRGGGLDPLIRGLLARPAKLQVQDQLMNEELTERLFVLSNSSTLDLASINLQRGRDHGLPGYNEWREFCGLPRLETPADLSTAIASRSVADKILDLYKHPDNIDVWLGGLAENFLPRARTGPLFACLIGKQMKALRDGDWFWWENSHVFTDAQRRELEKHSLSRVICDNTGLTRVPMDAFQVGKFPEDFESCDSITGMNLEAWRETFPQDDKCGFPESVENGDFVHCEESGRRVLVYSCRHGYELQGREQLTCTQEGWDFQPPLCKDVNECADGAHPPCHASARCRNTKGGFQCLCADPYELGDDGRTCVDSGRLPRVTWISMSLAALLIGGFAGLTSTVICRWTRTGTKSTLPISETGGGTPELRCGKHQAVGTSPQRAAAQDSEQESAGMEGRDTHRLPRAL

[5] = Solubility of the compound at pH 6.8; type: physicochemical; details: buffer
[6] = biological target: Voltage-gated inwardly rectifying potassium channel KCNH2 (Homo sapiens, UniProt Q12809); assay: Inhibition of human ERG
Cytochrome P450 3A4 = Cytochrome P450 3A4 (Homo sapiens, UniProt P08684); assay: Inhibition of CYP3A4 (unknown origin); type: ADME
Cytochrome P450 2D6 = Cytochrome P450 2D6 (Homo sapiens, UniProt P10635); assay: Inhibition of CYP2D6 (unknown origin); type: ADME
[7] = Unbound Cmax in mouse at 10 mg/kg, po; type: ADME, organism-based; details: in vivo
[8] = Plasma protein binding in mouse at 1mg/kg, iv or 10 mg/kg, po; type: ADME, organism-based; details: read-out: PPB (converted)
[9] = Cmax in mouse at 10 mg/kg, po; type: ADME, organism-based; set-up: dose 10 mg/kg, route oral; details: in vivo
[10] = Plasma clearance in mouse at 1 mg/kg, iv; type: ADME, organism-based
[11] = Volume of distribution at steady state in mouse at 1 mg/kg, iv; type: ADME, organism-based; details: in vivo, read-out: Vdss
[12] = Elimination half life in mouse at 1 mg/kg, iv; type: ADME, organism-based; details: in vivo, read-out: beta t1/2 (converted)
[13] = AUCinfinity in mouse at 10 mg/kg, po; type: ADME, organism-based; set-up: dose 10 mg/kg, route oral, time infinity; details: in vivo
[14] = Oral bioavailability in mouse at 10 mg/kg; type: ADME, organism-based; details: in vivo
Mus musculus = assay: Antiinflammatory activity against mouse model of thioglycolate/zymosan A induced peritonitis assessed as decrease in myeloperoxidase activity at 90 mg/kg, po pretreated for 4 hrs followed by zymosan A stimulation by ELISA; type: functional; set-up: scale not given: the % may be the effect or the level left
[15] = biological target: T2, Myeloperoxidase (Homo sapiens); assay: Irreversible inhibition of human myeloperoxidase using H2O2 as substrate at 200 fold dilution and measured after 72 hrs by dialysis method
[16] = Plasma protein binding in human; type: ADME, cell-free; details: read-out: PPB (converted)
[17] = Volume of distribution at steady state in mouse at 0.5 mg/kg, iv; type: ADME, organism-based; details: in vivo, read-out: Vdss
[18] = Elimination half life in mouse at 0.5 mg/kg, iv; type: ADME, organism-based; details: in vivo, read-out: beta t1/2 (converted)
[19] = Plasma protein binding in mouse at 0.5 mg/kg, iv or 10 mg/kg, po; type: ADME, organism-based; details: read-out: PPB (converted)
[20] = biological target: T2, Myeloperoxidase (Homo sapiens); assay: Irreversible inhibition of myeloperoxidase (unknown origin) at 1000 fold dilution
[21] = biological target: T4, Thyroid peroxidase (Homo sapiens) (UniProt P07202); assay: Irreversible inhibition of thyroid peroxidase (unknown origin) at 1000 fold dilution
T4 sequence (whole entry): T3 sequence (P07202 whole entry)

Armoracia rusticana = assay: Irreversible inhibition of horseradish peroxidase at 1000 fold dilution
[22] = biological target: T2, Myeloperoxidase (Homo sapiens); assay: Irreversible inhibition of human myeloperoxidase assessed as residual activity using H2O2 as substrate at 200 fold dilution and measured after 72 hrs by dialysis method

Cytochrome P450 3A4, sequence (P08684 whole entry): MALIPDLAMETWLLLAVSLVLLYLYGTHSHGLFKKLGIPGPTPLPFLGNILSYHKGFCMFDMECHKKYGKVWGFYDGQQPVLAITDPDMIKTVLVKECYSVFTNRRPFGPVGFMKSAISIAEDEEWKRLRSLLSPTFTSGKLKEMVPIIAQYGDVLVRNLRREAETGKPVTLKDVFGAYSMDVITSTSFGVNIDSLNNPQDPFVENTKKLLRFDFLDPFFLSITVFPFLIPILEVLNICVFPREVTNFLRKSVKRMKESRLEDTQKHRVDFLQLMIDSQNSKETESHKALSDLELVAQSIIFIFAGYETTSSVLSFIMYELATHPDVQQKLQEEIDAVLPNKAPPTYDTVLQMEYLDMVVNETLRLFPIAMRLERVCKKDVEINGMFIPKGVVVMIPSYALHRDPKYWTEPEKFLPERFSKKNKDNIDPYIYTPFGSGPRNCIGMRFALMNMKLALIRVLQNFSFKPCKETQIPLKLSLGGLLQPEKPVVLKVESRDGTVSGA
Voltage-gated inwardly rectifying potassium channel KCNH2, sequence (Q12809 whole entry): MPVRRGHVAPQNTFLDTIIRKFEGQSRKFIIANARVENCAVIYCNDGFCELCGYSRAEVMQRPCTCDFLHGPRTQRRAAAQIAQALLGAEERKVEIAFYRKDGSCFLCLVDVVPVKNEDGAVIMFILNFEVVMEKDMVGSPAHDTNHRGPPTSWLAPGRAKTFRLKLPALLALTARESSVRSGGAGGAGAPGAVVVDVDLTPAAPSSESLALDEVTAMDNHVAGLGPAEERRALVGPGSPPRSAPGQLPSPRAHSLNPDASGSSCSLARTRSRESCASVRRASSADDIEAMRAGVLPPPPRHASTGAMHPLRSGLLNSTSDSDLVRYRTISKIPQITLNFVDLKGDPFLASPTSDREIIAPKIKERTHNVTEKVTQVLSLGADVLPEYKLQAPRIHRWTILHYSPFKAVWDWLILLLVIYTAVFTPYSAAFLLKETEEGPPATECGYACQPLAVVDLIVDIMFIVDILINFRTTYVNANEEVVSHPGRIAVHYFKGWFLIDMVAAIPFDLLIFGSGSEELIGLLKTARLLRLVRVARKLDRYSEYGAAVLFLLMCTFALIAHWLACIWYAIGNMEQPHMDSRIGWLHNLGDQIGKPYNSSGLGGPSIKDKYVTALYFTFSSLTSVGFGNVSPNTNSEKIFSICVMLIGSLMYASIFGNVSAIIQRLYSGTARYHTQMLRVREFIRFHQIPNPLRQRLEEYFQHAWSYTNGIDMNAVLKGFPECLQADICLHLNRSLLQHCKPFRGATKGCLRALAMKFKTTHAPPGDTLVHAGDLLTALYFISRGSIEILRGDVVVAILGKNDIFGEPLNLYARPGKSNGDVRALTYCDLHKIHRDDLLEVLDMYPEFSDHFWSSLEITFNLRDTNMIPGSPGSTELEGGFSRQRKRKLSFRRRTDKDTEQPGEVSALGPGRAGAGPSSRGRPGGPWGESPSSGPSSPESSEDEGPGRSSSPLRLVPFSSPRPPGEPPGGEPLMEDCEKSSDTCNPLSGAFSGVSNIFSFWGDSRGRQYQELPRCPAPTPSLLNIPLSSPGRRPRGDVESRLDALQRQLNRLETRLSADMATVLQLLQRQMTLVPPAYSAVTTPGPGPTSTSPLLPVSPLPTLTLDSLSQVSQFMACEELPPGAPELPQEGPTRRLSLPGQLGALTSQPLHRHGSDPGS
Cytochrome P450 2D6, sequence (P10635 whole entry): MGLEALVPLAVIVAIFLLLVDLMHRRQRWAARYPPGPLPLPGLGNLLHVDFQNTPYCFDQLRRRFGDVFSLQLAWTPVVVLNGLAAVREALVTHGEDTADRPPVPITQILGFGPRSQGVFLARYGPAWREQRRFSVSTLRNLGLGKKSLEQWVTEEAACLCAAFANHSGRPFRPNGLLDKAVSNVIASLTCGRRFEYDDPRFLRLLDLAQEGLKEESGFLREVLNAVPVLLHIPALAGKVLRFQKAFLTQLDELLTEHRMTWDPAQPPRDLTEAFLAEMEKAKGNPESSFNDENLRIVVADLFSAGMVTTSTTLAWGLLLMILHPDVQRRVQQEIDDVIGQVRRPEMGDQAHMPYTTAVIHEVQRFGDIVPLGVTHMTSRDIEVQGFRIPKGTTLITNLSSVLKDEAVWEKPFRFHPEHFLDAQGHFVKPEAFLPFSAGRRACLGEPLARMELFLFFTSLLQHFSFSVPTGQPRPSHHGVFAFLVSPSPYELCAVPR

| SMILES | IC50 (Myeloperoxidase [1]) [nM] | IC50 (Myeloperoxidase [2]) [nM] | Ratio [3] [M⁻¹ s⁻¹] | Ratio [4] | IC50 (Thyroid peroxidase) [nM] | solubility [5] [µM] | IC50 [6] [nM] | IC (Cytochrome P450 3A4) [µM] | IC (Cytochrome P450 2D6) [µM] | further results |
| --- | --- | --- | --- | --- | --- | --- | --- | --- | --- | --- |
| N[C@@H](c1ccc(-n2cc(-c3ccc4cc[nH]c4c3)c(C(F)(F)F)n2)cc1)C(F)(F)F | 420 | 18000 | 122000 | 17 | > 30000 | 21 (≈ 8.91 µg/mL) | > 30000 | 17 | 21 | – |
| NC[C@H]1C[C@H](n2cc(-c3ccc4cc[nH]c4c3)c(C(F)(F)F)n2)C1 | 170 | – | – | 6.7 | > 30000 | – | – | – | – | – |
| CN(C)Cc1ccc(-n2cc(-c3ccc4cc[nH]c4c3)c3c(Cl)ccnc32)cc1 | 120 | 2600 | 210000 | 3.7 | 5300 | 21 (≈ 8.42 µg/mL) | 1700 | 17 | 21 | fCmax [7]: 2 nM; fraction unbound [8]: 0.004; Cmax [9]: 502 nM; clearance [10]: 64.7 mL/min/kg; Vd [11]: 9.8 L/kg; half-life [12]: 2.6 h; AUC(0-inf) [13]: 2.49 µM·h; bioavailability [14]: 61%; Activity (Mus musculus): 50%; inhibition [15]: Active |
| FC(F)(F)c1nn(-c2ccc(Cc3nc[nH]n3)cc2)cc1-c1ccc2cc[nH]c2c1 | 250 | 23000 | 106000 | 12 | 5900 | 11 (≈ 4.49 µg/mL) | > 30000 | 6.9 | 0.5 | – |
| NC(=O)CCn1cc(-c2ccc3cc[nH]c3c2)c(C(F)(F)F)n1 | 4200 | – | – | > 200 | > 30000 | – | – | – | – | – |
| O=C(O)CCn1cc(-c2ccc3cc[nH]c3c2)c(C(F)(F)F)n1 | 5200 | – | – | > 200 | – | – | – | – | – | – |
| NCCCCn1cc(-c2ccc3cc[nH]c3c2)c(C(F)(F)F)n1 | 330 | 900 | 61000 | 42 | > 30000 | 73 (≈ 23.5 µg/mL) | 1900 | > 50 | 43 | – |
| N[C@@H]1CC[C@@H](n2cc(-c3ccc4cc[nH]c4c3)c(C(F)(F)F)n2)C1 | 70 | 170 | 230000 | 3.1 | > 30000 | 587 (≈ 196 µg/mL) | 17000 | 34 | > 50 | Cmax [9]: 1990 nM; clearance [10]: 16.1 mL/min/kg; AUC(0-inf) [13]: 22.9 µM·h; bioavailability [14]: 40%; fraction unbound [16]: 0.034; Vd [17]: 2.1 L/kg; half-life [18]: 4.5 h; fraction unbound [19]: 0.027 |
| NCc1ccc(-n2cc(-c3ccc4cc[nH]c4c3)c(C(F)(F)F)n2)cc1 | 30 | 360 | 430000 | 0.4 | > 30000 | 62 (≈ 22.1 µg/mL) | 4000 | 3.8 | 1.4 | – |
| Nc1ncnc2c1c(-c1ccc3cc[nH]c3c1)cn2-c1ccc(OCCNCCO)cc1 | 220 | – | 23000 | 141 | 30000 | 46 (≈ 19.7 µg/mL) | 2800 | > 50 | > 50 | inhibition [20]: Active; inhibition [21]: inactive; inhibition (Armoracia rusticana): inactive; Activity [22]: > 95% |
| NC(=O)Cn1cc(-c2ccc3cc[nH]c3c2)c(C(F)(F)F)n1 | 2000 | – | – | > 200 | > 30000 | – | – | – | – | – |
